By IC50 is commonly meant the concentration that gives 50% inhibition. One may read the Ki as the equilibrium dissociation constant of an inhibitor or competing ligand from its target. The low end stands for higher affinity, the high end for lower affinity.

Square brackets hold non-standard residues; d marks the D form. Peptide text beside a SMILES is read from it. * marks the point of attachment. Nle = CCCC[C@H](N)C(=O)O; Nva = CCC[C@H](N)C(=O)O; Abu = CC[C@H](N)C(=O)O; CF3 = FC(F)(F)* Bounds are passed on as bounds.

One experiment addresses Cathepsin B (Homo sapiens, UniProt P07858). Description: Compound was tested for inhibition of human liver Cathepsin B.
Another experiment has as its target T1, Neutrophil elastase (Homo sapiens, UniProt P08246).
T1 sequence (P08246 whole entry): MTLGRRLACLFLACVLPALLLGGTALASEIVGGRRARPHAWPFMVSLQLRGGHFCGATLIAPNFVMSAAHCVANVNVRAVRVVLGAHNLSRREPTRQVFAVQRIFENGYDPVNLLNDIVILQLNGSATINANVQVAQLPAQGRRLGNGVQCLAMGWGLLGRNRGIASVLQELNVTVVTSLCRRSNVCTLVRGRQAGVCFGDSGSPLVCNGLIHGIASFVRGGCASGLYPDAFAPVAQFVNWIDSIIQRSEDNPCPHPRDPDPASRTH
Description: Compound was tested for inhibition of human leucocyte elastase (HLE).

Experiment [1] deals with Hepatitis C virus serine protease, NS3/NS4A (Hepatitis C virus, UniProt A3EZI9+D2K2A8). The experiment in a line: (§1) Inhibition of hepatitis C virus (HCV) NS3 protease. The format is protein-complex assay, Hepacivirus hominis.
For a further experiment, the target named is Pancreatic elastase (Sus scrofa, UniProt P08419+P00772). The experiment in a line: Compound was tested for inhibition of porcine pancreatic elastase (PPE). In kind it is protein assay.
A short description of experiment [2]: Compound was tested for inhibition of bovine pancreatic alpha-chymotrypsin. Also on record: species or system Bos taurus.
Experiment [3] addresses T2, Hepatitis C virus serine protease, NS3/NS4A (Hepatitis C virus, UniProt D2K2A8+A3EZI9). Described as §1. The format is protein-complex assay, Hepacivirus hominis.
Experiment [4] concerns the target T2, Hepatitis C virus serine protease, NS3/NS4A. Description: Compound was tested for competitive inhibition of hepatitis C virus (HCV) serine protease. The format is protein-complex assay, Hepacivirus hominis.

`CCC[C@H](NC(=O)[C@@H]1CCCN1C(=O)[C@@H](NC(=O)[C@@H](NC(=O)[C@@H](CC(=O)O)NC(=O)[C@H](CC(=O)O)NC(C)=O)[C@@H](C)CC)C(C)C)C(=O)C(=O)NCc1ccccc1`: the IC50 was 172 µM against Cathepsin B; 0.1 µM against Neutrophil elastase; 0.64 µM in experiment [1]; less than 0.06 µM on Pancreatic elastase; 30 µM in experiment [2].

On to `CCC[C@H](NC(=O)[C@@H]1CCCN1C(=O)[C@@H](NC(=O)[C@@H](NC(=O)[C@@H](CC(=O)O)NC(=O)[C@H](CC(=O)O)NC(C)=O)[C@@H](C)CC)C(C)C)C(=O)C(F)(F)C(F)(F)F`, for which the IC50 on Cathepsin B is 416 µM; against Neutrophil elastase, 0.06 µM; in experiment [1] it was 12 µM; at Pancreatic elastase, less than 0.06 µM; in experiment [2] it was 18 µM.

For the molecule `CCC[C@H](NC(=O)[C@@H]1CCCN1C(=O)[C@@H](NC(=O)[C@@H](NC(=O)[C@@H](CC(=O)O)NC(=O)[C@H](CC(=O)O)NC(C)=O)[C@@H](C)CC)C(C)C)C(=O)C(F)(F)F` (Ac-D[dD]IVP[Nva]-CF3), the IC50 against Cathepsin B is greater than 900 µM; on Neutrophil elastase, less than 0.06 µM; in experiment [1] it was 22 µM; on Pancreatic elastase, 0.19 µM; in experiment [2] it was 4.5 µM.

In turn, `CCC[C@H](NC(=O)[C@@H]1CCCN1C(=O)[C@@H](NC(=O)[C@@H](NC(=O)[C@H](CC(=O)O)NC(=O)[C@H](CC(=O)O)NC(C)=O)[C@@H](C)CC)C(C)C)C(=O)O` (Ac-DDIVP[Nva]-OH) came in with an IC50 in experiment [1] of 150 µM.

As to `CC[C@H](C)[C@H](NC(=O)[C@@H]1CCCN1C(=O)[C@@H](NC(=O)[C@@H](NC(=O)[C@H](CC(=O)O)NC(=O)[C@H](CC(=O)O)NC(C)=O)[C@@H](C)CC)C(C)C)C(=O)O`, it took 780 µM to reach half-maximal inhibition in experiment [1] (IC50).

In the case of Ac-DDIVPA-OH, 750 µM corresponded to half-maximal inhibition in experiment [1] (IC50).

In the case of `CCC[C@@H](NC(=O)[C@@H]1CCCN1C(=O)[C@@H](NC(=O)[C@@H](NC(=O)[C@@H](CC(=O)O)NC(=O)[C@H](CC(=O)O)NC(C)=O)[C@@H](C)CC)C(C)C)C(N)=O`, the IC50 in experiment [3] is greater than 1000 µM.

Ac-DDIVPL-OH returned an IC50 in experiment [1] of 800 µM.

In experiment [1], `CC[C@@H](C)[C@H](NC(=O)[C@@H]1CCCN1C(=O)[C@@H](NC(=O)[C@@H](NC(=O)[C@H](CC(=O)O)NC(=O)[C@H](CC(=O)O)NC(C)=O)[C@@H](C)CC)C(C)C)C(=O)O` came in with an IC50 of 190 µM.

In experiment [1], `CC[C@H](NC(=O)[C@@H]1CCCN1C(=O)[C@@H](NC(=O)[C@@H](NC(=O)[C@H](CC(=O)O)NC(=O)[C@H](CC(=O)O)NC(C)=O)[C@@H](C)CC)C(C)C)C(=O)O` (Ac-DDIVP[Abu]-OH) had an IC50 of 250 µM.

Consider `CCC[C@@H](NC(=O)[C@@H]1CCCN1C(=O)[C@@H](NC(=O)[C@@H](NC(=O)[C@@H](CC(=O)O)NC(=O)[C@H](CC(=O)O)NC(C)=O)[C@@H](C)CC)C(C)C)C(=O)OC`, for which the concentration for half-maximal inhibition (IC50) in experiment [3] came to 17 µM.

The molecule `CC[C@H](C)[C@H](NC(=O)[C@H](CC(=O)O)NC(=O)[C@H](CC(=O)O)NC(C)=O)C(=O)N[C@H](C(=O)N1CCC[C@H]1C(=O)N[C@@H](CS)C(=O)O)C(C)C` returned an IC50 in experiment [1] of 28 µM.

Turning to `CCC[C@H](NC(=O)[C@@H]1CCCN1C(=O)[C@@H](NC(=O)[C@@H](NC(=O)[C@H](CC(=O)O)NC(=O)[C@H](CC(=O)O)NC(C)=O)[C@@H](C)CC)C(C)C)C(=O)C(F)(F)C(F)(F)F`, in experiment [1], inhibition was half-maximal at 79 µM (IC50).

`CCC[C@@H](C=O)NC(=O)[C@@H]1CCCN1C(=O)[C@@H](NC(=O)[C@@H](NC(=O)[C@H](CC(=O)O)NC(=O)[C@H](CC(=O)O)NC(C)=O)[C@@H](C)CC)C(C)C` came in with an IC50 in experiment [1] of 10 µM.

Turning to `CCC[C@@H](C=O)NC(=O)[C@@H]1CCCN1C(=O)[C@@H](NC(=O)[C@@H](NC(=O)[C@@H](CC(=O)O)NC(=O)[C@H](CC(=O)O)NC(C)=O)[C@@H](C)CC)C(C)C`, the IC50 was 9.5 µM on Cathepsin B; 6.7 µM against Neutrophil elastase; 1.1 µM in experiment [1]; 2.2 µM against Pancreatic elastase; greater than 900 µM in experiment [2].

In the case of `CCC[C@@H](NC(=O)[C@@H]1CCCN1C(=O)[C@@H](NC(=O)[C@@H](NC(=O)[C@@H](CC(=O)O)NC(=O)[C@H](CC(=O)O)NC(C)=O)[C@@H](C)CC)C(C)C)C(=O)NCc1ccccc1`, the IC50 is greater than 1000 µM against Cathepsin B; 120 µM against Neutrophil elastase; 52 µM in experiment [3]; 206 µM at Pancreatic elastase; greater than 1000 µM in experiment [2].

Regarding `CCC[C@H](NC(=O)[C@@H]1CCCN1C(=O)[C@@H](NC(=O)[C@@H](NC(=O)[C@@H](CC(=O)O)NC(=O)[C@H](CC(=O)O)NC(C)=O)[C@@H](C)CC)C(C)C)C(=O)O` (Ac-D[dD]IVP[Nva]-OH), the IC50 is greater than 1000 µM against Cathepsin B; greater than 1000 µM against Neutrophil elastase; 17 µM in experiment [1]; greater than 1000 µM against Pancreatic elastase; greater than 1000 µM in experiment [2].

In turn, `CCC[C@H](NC(=O)[C@@H]1CCCN1C(=O)[C@@H](NC(=O)[C@@H](NC(=O)[C@H](CC(=O)O)NC(=O)[C@H](CC(=O)O)NC(C)=O)[C@@H](C)CC)C(C)C)C(=O)C(F)(F)F` (Ac-DDIVP[Nva]-CF3) registered an IC50 in experiment [1] of 160 µM.

As for `CCCC[C@H](NC(=O)[C@@H]1CCCN1C(=O)[C@@H](NC(=O)[C@@H](NC(=O)[C@H](CC(=O)O)NC(=O)[C@H](CC(=O)O)NC(C)=O)[C@@H](C)CC)C(C)C)C(=O)O` (Ac-DDIVP[Nle]-OH), in experiment [1], the IC50 came to 500 µM.

Consider `CCC[C@H](NC(=O)[C@@H]1CCCN1C(=O)[C@@H](NC(=O)[C@@H](NC(=O)[C@H](CC(=O)O)NC(=O)[C@H](CC(=O)O)NC(C)=O)[C@@H](C)CC)C(C)C)C(=O)C(=O)NCc1ccccc1`, for which the IC50 on Cathepsin B is 100 µM; at Neutrophil elastase, 0.03 µM; in experiment [1] it was 2 µM; against Pancreatic elastase, less than 0.06 µM; in experiment [2] it was 10 µM.

For the molecule `CCC[C@@H](NC(=O)[C@@H]1CCCN1C(=O)[C@@H](NC(=O)[C@@H](NC(=O)[C@@H](CC(=O)O)NC(=O)[C@H](CC(=O)O)NC(C)=O)[C@@H](C)CC)C(C)C)C(=O)NC`, in experiment [3], the IC50 is 160 µM.

`CCC[C@@H](NC(=O)[C@@H]1CCCN1C(=O)[C@@H](NC(=O)[C@@H](NC(=O)[C@@H](CC(=O)O)NC(=O)[C@H](CC(=O)O)NC(C)=O)[C@@H](C)CC)C(C)C)C(=O)OCc1ccccc1`: the IC50 is greater than 1000 µM against Cathepsin B; greater than 1000 µM at Neutrophil elastase; 9.3 µM in experiment [3]; greater than 1000 µM at Pancreatic elastase; 29 µM in experiment [2].

Take `CC[C@H](C)[C@H](NC(=O)[C@@H](CC(=O)O)NC(=O)[C@H](CC(=O)O)NC(C)=O)C(=O)N[C@H](C(=O)N1CCC[C@@H]1C(=O)N[C@@H](CS)C(=O)O)C(C)C`: in experiment [4], the Ki is 0.6 µM.

Take `CCC[C@H](CO)NC(=O)[C@@H]1CCCN1C(=O)[C@@H](NC(=O)[C@@H](NC(=O)[C@@H](CC(=O)O)NC(=O)[C@H](CC(=O)O)NC(C)=O)[C@@H](C)CC)C(C)C`: the IC50 in experiment [1] amounted to 280 µM.

Source of the values: ChEMBL document CHEMBL1130603, “Studies on the C-terminal of hexapeptide inhibitors of the hepatitis C virus serine protease” (Bioorg Med Chem Lett, 1998).
